# Measured values as given in patent US6358885B1, “Substituted phenylheterocyclic herbicides” (Mississippi State University, priority 1992, dated 2002).
# How the values were obtained:
# [1] = system: Japonica rice; test: Test D paddy water application plant response rating 0 to 100; type: in vivo, Oryza sativa; conditions: 0 to 100 scale, approx. 21 days
# From the text: (§1) Plastic pots were partially filled with silt loam soil. The soil was then saturated with water. […] After planting, water levels were raised to 3 cm above the soil surface and maintained at this level throughout the test. Chemical treatments were formulated in a non-phytotoxic solvent and applied directly to the paddy water. Treated plants and controls were maintained in a greenhouse for approximately 21 days, after which all species were compared to controls and visually evaluated. […] A dash (-) response means no test result.
# [2] = system: barnyardgrass; test: as above; type: in vivo, Echinochloa crus-galli; conditions: 0 to 100 scale, approx. 21 days
# From the text: as §1
# [3] = system: duck salad; test: as above; type: in vivo, Heteranthera limosa; conditions: 0 to 100 scale, approx. 21 days
# From the text: as §1
# [4] = system: umbrella sedge; test: as above; type: in vivo, Cyperus difformis; conditions: 0 to 100 scale, approx. 21 days
# From the text: as §1
# [5] = system: arrowhead; test: as above; type: in vivo, Sagittaria spp.; conditions: 0 to 100 scale, approx. 21 days
# From the text: as §1
# [6] = system: waterchestnut; test: as above; type: in vivo, Eleocharis spp.; conditions: 0 to 100 scale, approx. 21 days
# From the text: as §1
# [7] = system: Japonica rice; test: Test E paddy water application plant response rating 0 to 100; type: in vivo, oryza sativa; conditions: Flood, 0 to 100 scale, approx. 21 days
# From the text: (§2) Plastic pots were partially filled with silt loam soil. […] At testing, the water level for all plantings was raised to 2 cm above the soil surface. Chemical treatments were formulated in a non-phytotoxic solvent and applied directly to the paddy water. Treated plants and controls were maintained in a greenhouse for approximately 21 days, after which all species were compared to controls and visually evaluated. […] A dash (-) response means no test result.
# [8] = system: barnyardgrass; test: as above; type: in vivo, Echinochloa crus-galli; conditions: Flood, 0 to 100 scale, approx. 21 days
# From the text: as §2
# [9] = system: winter barley; test: Test F preemergence/postemergence greenhouse plant response rating 0 to 100; type: in vivo, Hordeum vulgare cv. ‘Igri’; conditions: POSTEMERGENCE, 0 to 100 scale
# From the text: (§3) Compounds evaluated in this test were formulated in a non-phytoxic solvent and applied to the soil surface before plant seedlings emerged (preemergence application) and to plants that were in the one-to-four leaf stage (postemergence application). A sandy loam soil was used for the preemergence test while a mixture of sandy loam soil and greenhouse potting mix in a 60:40 ratio was used for the postemergence test. Test compounds were applied within approximately one day after planting seeds for the preemergence test. Plantings of these crops and weed species were adjusted to produce plants of appropriate size for the postemergence test. All plant species were grown using normal greenhouse practices. Crop and weed species include winter barley (Hordeum vulgare cv. ‘Igri’), blackgrass (Alopecurus myosuroides), chickweed (Stellaria media), downy brome (Bromus tectorum), field violet (Viola arvensis), galium (Galium aparine), green foxtail (Setaria viridis), kochia (Kochia scoparia), lambsquarters (Chenopodium album), speedwell (Veronica persica), rape (Brassica napus), ryegrass (Lolium multiflorum), sugar beet (Beta vulgaris cv. ‘USl’), sunflower (Helianthus annuus cv. ‘Russian Giant’), spring wheat (Triticum aestivum cv. ‘ERA’), winter wheat (Triticum aestivum cv. ‘Talent’), wild buckwheat (Polygonum convolvulus), wild mustard (Sinapis arvensis), wild oat (Avena fatua), and wild radish (Raphanus raphanistrum). Blackgrass, galium and wild oat were treated at two growth stages. […] Treated plants and untreated controls were maintained in a greenhouse for approximately 21 to 28 days, after which all treated plants were compared to untreated controls and visually evaluated. […] A dash response (-) means no test result.
# [10] = system: chickweed; test: as above; type: in vivo, Stellaria media; conditions: POSTEMERGENCE, 0 to 100 scale
# From the text: as §3
# [11] = system: field violet; test: as above; type: in vivo, Viola arvensis; conditions: POSTEMERGENCE, 0 to 100 scale
# From the text: as §3
# [12] = system: green foxtail; test: as above; type: in vivo, Setaria viridis; conditions: POSTEMERGENCE, 0 to 100 scale
# From the text: as §3
# [13] = system: kochia; test: as above; type: in vivo, Kochia scoparia; conditions: POSTEMERGENCE, 0 to 100 scale
# From the text: as §3
# [14] = system: wild mustard; test: as above; type: in vivo, Sinapis arvensis; conditions: POSTEMERGENCE, 0 to 100 scale
# From the text: as §3
# [15] = system: wild radish; test: as above; type: in vivo, Raphanus raphanistrum; conditions: POSTEMERGENCE, 0 to 100 scale
# From the text: as §3
compound,measurement,setting,value
C#CC(C)Oc1cc(-c2nn3c(c2Cl)CCCC3)c(F)cc1Cl (stereo not drawn) [Compound 36],Japonica rice plant response rating,[1]; Rate 4 g/ha,10
same,Japonica rice plant response rating,[1]; Rate 8 g/ha,10
same,Japonica rice plant response rating,[1]; Rate 16 g/ha,15
same,Japonica rice plant response rating,[1]; Rate 32 g/ha,20
same,Japonica rice plant response rating,[1]; Rate 64 g/ha,25
same,Barnyardgrass 2 plant response rating,[2]; Rate 4 g/ha,30
same,Barnyardgrass 2 plant response rating,[2]; Rate 8 g/ha,65
same,Barnyardgrass 2 plant response rating,[2]; Rate 16 g/ha,80
same,Barnyardgrass 2 plant response rating,[2]; Rate 32 g/ha,100
same,Barnyardgrass 2 plant response rating,[2]; Rate 64 g/ha,100
same,Duck salad plant response rating,[3]; Rate 4 g/ha,0
same,Duck salad plant response rating,[3]; Rate 8 g/ha,0
same,Duck salad plant response rating,[3]; Rate 16 g/ha,20
same,Duck salad plant response rating,[3]; Rate 32 g/ha,30
same,Duck salad plant response rating,[3]; Rate 64 g/ha,60
same,Umbrella sedge plant response rating,[4]; Rate 4 g/ha,0
same,Umbrella sedge plant response rating,[4]; Rate 8 g/ha,0
same,Umbrella sedge plant response rating,[4]; Rate 16 g/ha,60
same,Umbrella sedge plant response rating,[4]; Rate 32 g/ha,70
same,Umbrella sedge plant response rating,[4]; Rate 64 g/ha,80
same,Arrowhead plant response rating,[5]; Rate 4 g/ha,0
same,Arrowhead plant response rating,[5]; Rate 8 g/ha,0
same,Arrowhead plant response rating,[5]; Rate 16 g/ha,0
same,Arrowhead plant response rating,[5]; Rate 32 g/ha,0
same,Arrowhead plant response rating,[5]; Rate 64 g/ha,0
same,Waterchestnut plant response rating,[6]; Rate 4 g/ha,10
same,Waterchestnut plant response rating,[6]; Rate 8 g/ha,10
same,Waterchestnut plant response rating,[6]; Rate 16 g/ha,20
same,Waterchestnut plant response rating,[6]; Rate 32 g/ha,20
same,Waterchestnut plant response rating,[6]; Rate 64 g/ha,20
same,Japonica 1 plant response rating,[7]; Rate 8 g/ha,15
same,Japonica 2 plant response rating,[7]; Rate 8 g/ha,10
same,Japonica 1 plant response rating,[7]; Rate 16 g/ha,20
same,Japonica 2 plant response rating,[7]; Rate 16 g/ha,0
same,Japonica 1 plant response rating,[7]; Rate 32 g/ha,20
same,Japonica 2 plant response rating,[7]; Rate 32 g/ha,15
same,Japonica 1 plant response rating,[7]; Rate 64 g/ha,25
same,Japonica 2 plant response rating,[7]; Rate 64 g/ha,15
same,Japonica 1 plant response rating,[7]; Rate 125 g/ha,25
same,Japonica 2 plant response rating,[7]; Rate 125 g/ha,20
same,Barnyardgrass 2 plant response rating,[8]; Rate 8 g/ha,30
same,Barnyardgrass 3 plant response rating,[8]; Rate 8 g/ha,30
same,Barnyardgrass 2 plant response rating,[8]; Rate 16 g/ha,40
same,Barnyardgrass 3 plant response rating,[8]; Rate 16 g/ha,35
same,Barnyardgrass 2 plant response rating,[8]; Rate 32 g/ha,55
same,Barnyardgrass 3 plant response rating,[8]; Rate 32 g/ha,40
same,Barnyardgrass 2 plant response rating,[8]; Rate 64 g/ha,65
same,Barnyardgrass 3 plant response rating,[8]; Rate 64 g/ha,50
same,Barnyardgrass 2 plant response rating,[8]; Rate 125 g/ha,100
same,Barnyardgrass 3 plant response rating,[8]; Rate 125 g/ha,75
same,Winter Barley plant response rating,[9]; Rate 4 g/ha,20
same,Winter Barley plant response rating,[9]; Rate 8 g/ha,20
same,Winter Barley plant response rating,[9]; Rate 16 g/ha,20
same,Winter Barley plant response rating,[9]; Rate 32 g/ha,25
same,Chickweed plant response rating,[10]; Rate 4 g/ha,50
same,Chickweed plant response rating,[10]; Rate 8 g/ha,100
same,Chickweed plant response rating,[10]; Rate 16 g/ha,100
same,Chickweed plant response rating,[10]; Rate 32 g/ha,100
same,Field violet plant response rating,[11]; Rate 4 g/ha,100
same,Field violet plant response rating,[11]; Rate 8 g/ha,100
same,Field violet plant response rating,[11]; Rate 16 g/ha,100
same,Field violet plant response rating,[11]; Rate 32 g/ha,100
same,Green foxtail plant response rating,[12]; Rate 4 g/ha,0
same,Green foxtail plant response rating,[12]; Rate 8 g/ha,40
same,Green foxtail plant response rating,[12]; Rate 16 g/ha,50
same,Green foxtail plant response rating,[12]; Rate 32 g/ha,50
same,Kochia plant response rating,[13]; Rate 4 g/ha,20
same,Kochia plant response rating,[13]; Rate 8 g/ha,60
same,Kochia plant response rating,[13]; Rate 16 g/ha,60
same,Kochia plant response rating,[13]; Rate 32 g/ha,100
same,Wild mustard plant response rating,[14]; Rate 4 g/ha,100
same,Wild mustard plant response rating,[14]; Rate 8 g/ha,100
same,Wild mustard plant response rating,[14]; Rate 16 g/ha,100
same,Wild mustard plant response rating,[14]; Rate 32 g/ha,100
same,Wild radish plant response rating,[15]; Rate 4 g/ha,100
same,Wild radish plant response rating,[15]; Rate 8 g/ha,100
same,Wild radish plant response rating,[15]; Rate 16 g/ha,100
same,Wild radish plant response rating,[15]; Rate 32 g/ha,100
C#CC(C)N1C(=O)COc2cc(F)c(-c3nn4c(c3Cl)CCCC4)cc21 (stereo not drawn) [Compound 50],Japonica 1 plant response rating,[7]; Rate 8 g/ha,0
same,Japonica 2 plant response rating,[7]; Rate 8 g/ha,15
same,Japonica 1 plant response rating,[7]; Rate 16 g/ha,20
same,Japonica 2 plant response rating,[7]; Rate 16 g/ha,20
same,Japonica 1 plant response rating,[7]; Rate 32 g/ha,40
same,Japonica 2 plant response rating,[7]; Rate 32 g/ha,30
same,Japonica 1 plant response rating,[7]; Rate 64 g/ha,50
same,Japonica 2 plant response rating,[7]; Rate 64 g/ha,35
same,Japonica 1 plant response rating,[7]; Rate 125 g/ha,75
same,Japonica 2 plant response rating,[7]; Rate 125 g/ha,45
same,Barnyardgrass 2 plant response rating,[8]; Rate 8 g/ha,15
same,Barnyardgrass 3 plant response rating,[8]; Rate 8 g/ha,10
same,Barnyardgrass 2 plant response rating,[8]; Rate 16 g/ha,15
same,Barnyardgrass 3 plant response rating,[8]; Rate 16 g/ha,15
same,Barnyardgrass 2 plant response rating,[8]; Rate 32 g/ha,25
same,Barnyardgrass 3 plant response rating,[8]; Rate 32 g/ha,20
same,Barnyardgrass 2 plant response rating,[8]; Rate 64 g/ha,35
same,Barnyardgrass 3 plant response rating,[8]; Rate 64 g/ha,35
same,Barnyardgrass 2 plant response rating,[8]; Rate 125 g/ha,55
same,Barnyardgrass 3 plant response rating,[8]; Rate 125 g/ha,60
same,Winter Barley plant response rating,[9]; Rate 16 g/ha,0
same,Winter Barley plant response rating,[9]; Rate 32 g/ha,0
same,Winter Barley plant response rating,[9]; Rate 64 g/ha,0
same,Winter Barley plant response rating,[9]; Rate 125 g/ha,50
same,Chickweed plant response rating,[10]; Rate 16 g/ha,70
same,Chickweed plant response rating,[10]; Rate 32 g/ha,100
same,Chickweed plant response rating,[10]; Rate 64 g/ha,100
same,Chickweed plant response rating,[10]; Rate 125 g/ha,100
same,Field violet plant response rating,[11]; Rate 16 g/ha,100
same,Field violet plant response rating,[11]; Rate 32 g/ha,100
same,Field violet plant response rating,[11]; Rate 64 g/ha,100
same,Field violet plant response rating,[11]; Rate 125 g/ha,100
same,Green foxtail plant response rating,[12]; Rate 16 g/ha,0
same,Green foxtail plant response rating,[12]; Rate 32 g/ha,0
same,Green foxtail plant response rating,[12]; Rate 64 g/ha,50
same,Green foxtail plant response rating,[12]; Rate 125 g/ha,50
same,Kochia plant response rating,[13]; Rate 16 g/ha,100
same,Kochia plant response rating,[13]; Rate 32 g/ha,100
same,Kochia plant response rating,[13]; Rate 64 g/ha,100
same,Kochia plant response rating,[13]; Rate 125 g/ha,100
same,Wild mustard plant response rating,[14]; Rate 16 g/ha,70
same,Wild mustard plant response rating,[14]; Rate 32 g/ha,70
same,Wild mustard plant response rating,[14]; Rate 64 g/ha,100
same,Wild mustard plant response rating,[14]; Rate 125 g/ha,100
same,Wild radish plant response rating,[15]; Rate 16 g/ha,50
same,Wild radish plant response rating,[15]; Rate 32 g/ha,50
same,Wild radish plant response rating,[15]; Rate 64 g/ha,55
same,Wild radish plant response rating,[15]; Rate 125 g/ha,70
